Laboratory results: PMC6838142, “Nano-Antagonist Alleviates Inflammation and Allows for MRI of Atherosclerosis” (Nanotheranostics, 2019)

Assays:
[1] = test system: BMDMs from CCR2-knockout mice; test: Actin polymerization in BMDMs from CCR2-knockout mice; assay type: cell-based, mouse
Method: BMDMs were seeded and cultured on #1 glass coverslips in the presence or absence of 10 μM CCTV or VTCC for 6 h. Next, cells were washed with PBS and recombinant mouse CCL2 was added to a final concentration of 500 nM. Then, cells were incubated for varying times (indicated in Figure 2G), after which they were immediately placed on ice and washed 3 times with cold PBS. Actin polymerization was then visualized following staining with phalloidin Alexa Fluor 633, according to the manufacturer's instructions.

recombinant CCR2 protein = test: Competition with CCL2 binding to immobilized CCR2; conditions: free peptide 1 mM in dimethylformamide, 1 h room temperature, recombinant human CCL2; OD 450 nm; three independent experiments
Method: A sandwich-type plate-based immunoassay was developed in-house to study CCR2 receptor binding. Black opaque plates (for fluorescence studies) or clear high protein binding plates (for absorbance studies) were coated with recombinant CCR2 protein at 2 µg/mL in PBS overnight at 4 °C. Plates were washed 5 times with PBS and treated as follows: for nanoparticles binding, varying concentrations of fluorescent nanoparticles or vehicle control (see above) in PBS were added to the opaque plates and incubated for 4 h at room temperature. For peptide competition/binding studies, recombinant human CCL2 was added in clear plates at varying concentrations in PBS simultaneously with a large excess of peptides (1 mM final concentration, dissolved in dimethylformamide) and incubated for 1 h at room temperature. All plates were washed 5 times with PBS and fluorescence in opaque plates was read at 550 nm excitation and 620 nm emissions. […] Clear plates were washed and incubated with 0.1 µg/mL streptavidin-HRP. Finally, clear plates were washed and incubated with SigmaFast OPD reagent in the presence of hydrogen peroxide-urea, as per the manufacturer's instructions. After 30 min incubation period at 37 °C, the plates were read at 450 nm on a multiwell plate reader as described above. Fluorescence emission values and OD at 450 nm were plotted against concentration using a 4-parametric fit.

RAW cells = test: Flow cytometry competition with excess free peptide; assay type: cell-based, mouse; conditions: excess (1 mM) free peptide
From the text: Figure 1 Screening identifies CCTV as an anti-inflammatory nanoparticle with high affinity for CC chemokine receptor 2. A) A screening of a small library of nanoparticles in lipopolysaccharide (LPS)-stimulated macrophage reporter cells (RAW-Blue) identified CCTV, which downregulates nuclear factor-kappa B (NF-κB) activity. Each point on the plot represents a relative activity of NF-κB (X-coordinate) and corresponding nanoparticle content per mg of cell protein (Y-coordinate) calculated from nanoparticle fluorescence. […] Dexamethasone (Dex) is an NF-κB inhibitor and was used as a positive control. Vehicle-treated and unstained (US) cells served as a negative control. B) CCTV binding to the cell surface was validated in RAW cells using fluorescence microscopy. The cells were stained at 4 °C or room temperature for 30 min with CCTV or vehicle nanoparticles (sudo-colored green). […] E) The Basic Local Alignment Search Tool (BLAST) analysis determined that CCTV peptide sequence repeats in mouse and human CC chemokine receptor family. […]
For a targeted nanotherapy to be effective, the nanoparticles must have affinity to a specific cell type, usually determined by cell surface binding. […] Thus, we used the mouse macrophage reporter cell line RAW-Blue that allowed for monitoring activity of Nuclear Factor-kappa B (NF-kB) and also enabled In vitro quantitation of nanoparticle binding to the cell surface. […]

Substance | actin polymerization in CCR2-knockout BMDMs [1] | competition with CCL2 binding to CCR2 (recombinant CCR2 protein) | reduction of CCTV nanoparticle staining by free peptide (RAW cells)
CCL2: recombinant mouse CCL2/MCP-1 protein, natural CCR2 ligand | neither nanoparticles nor CCL2 are able to induce polymerization |  | 
CCTV [free CCTV peptide, free (unconjugated) CCTV tetrapeptide] |  | insignificantly competed with receptor binding of natural CCR2 ligand | did not show appreciable reduction in CCTV staining in RAW cells
